Tested on: Wistar rats
Assay: Adjuvant-induced arthritis (AIA) rat model (paw edema, allodynia, ankle width)
Type: in vivo
Parameters: Paw edema, Mean ± SD: unit not given beside the values; Allodynia, Mean ± SD / Ankle Width, Mean ± SD: unit not given here
Conditions: for reduction in ankle diameter vs. vehicle control / reduction in pain sensitivity (allodynia) / reduction in paw edema vs. vehicle control / Allodynia, Mean ± SD / Paw edema, Mean ± SD: 100 mg/kg oral daily; for Ankle Width, Mean ± SD: AIA rats, oral 100 mg/kg; for Allodynia, Mean ± SD / Paw edema, Mean ± SD: AIA model, Wistar rats
Method: This adjuvant-induced rat arthritis model was used to evaluate the anti-pain and anti-inflammatory activity of a Curcuma:Morus (C:M) composition. Purpose bred female Wistar rats weighing 150-175 g (Charles River Laboratories, Inc., Wilmington, Mass.) were acclimated upon arrival for a week before being assigned randomly to their respective group. The rats were provided with fresh water and rodent chow diet ad libitum while being housed in a temperature controlled room (22.2° C.) on a 12 hour light-dark cycle. Treatment was started a day before antigen inoculation, wherein animals (n=9) were orally gavaged with a positive control ibuprofen, a 1C:1M test article, or a vehicle only control (propylene glycol). On the next day, arthritis was induced by sensitizing rats with an injection of complete Freund's adjuvant containing 5 mg/ml (w/v) suspension of heat killed Mycobacterium tuberculosis in liquid paraffin into the subplantar region of right hind paw of sedated rats (Currey, Ann. Rheum. Dis. 29:314, 1970; Whitehouse et al., Can. Med. Assoc. J. 129:249, 1983) an hour after a second treatment dose.
(§1) Treatment with the controls or test articles was started a day before intraplantar injection of complete adjuvant into the right hind paw. The anti-inflammatory effect of a C:M composition was reflected in the measured change in paw edema. Rats (n=9) were treated orally with 1C:1M composition (200 mg/kg, 100 mg/kg or 50 mg/kg), ibuprofen (100 mg/kg) or vehicle for 14 days. Data are expressed as mean±SD and p-values were calculated against vehicle. Paw edema was measured with the use of a plethysmometer (IITC, Woodland Hills, Calif.; Model 520) on day 1 (before antigen), day 3, 5, 7, 9 and 13 after antigen injection.
Treatment with the controls or test articles was started a day before intraplantar injection of complete adjuvant into the right hind paw. The anti-pain effect of a C:M composition was reflected by allodynia (induced pain). Rats (n=9) were treated orally with 1C:1M composition (200 mg/kg, 100 mg/kg or 50 mg/kg), ibuprofen (100 mg/kg) or vehicle for 14 days. Data are expressed as mean±SD and p-values were calculated against vehicle. Allodynia was evaluated by responsiveness to pressure applied perpendicular to the central plantar surface of the right hind paw using the Randall—Selitto test (Randall and Selitto, Arch. Intl Pharmacodyn Therap. 133:233, 1957). A positive response to the applied mechanical pressure, noted by sharp withdrawal of the paw, was recorded automatically by an electronic Von Frey Anesthesiometer (2390 series Electrovonfrey, IITC, Woodland Hills, Calif.) (Vivancos et al., 2004).
as §1, with “ankle diameter.” for “paw edema.”, “vehicle Ankle diameter” for “vehicle. Paw edema”, “using” for “with the use of”, “Pocket Thickness Gage (7309, Mitutoyo corp. Japan)” for “plethysmometer (IITC, Woodland Hills, Calif.; Model 520)”

SMILES: CC(C)Cc1ccc(C(C)C(=O)O)cc1 (stereo not drawn) [Ibuprofen]
- reduction in ankle diameter vs. vehicle control (day 3): 37.2%
- reduction in pain sensitivity (allodynia) (day 3): 31.3%
- reduction in paw edema vs. vehicle control (day 3): 28.8%
- reduction in ankle diameter vs. vehicle control (day 5): 34.8%
- reduction in pain sensitivity (allodynia) (day 5): 39.5%
- reduction in paw edema vs. vehicle control (day 5): 21.1%
- reduction in ankle diameter vs. vehicle control (day 7): 36.8%
- reduction in pain sensitivity (allodynia) (day 7): 48.8%
- reduction in paw edema vs. vehicle control (day 7): 19.4%
- reduction in ankle diameter vs. vehicle control (day 9): 33.5%
- reduction in pain sensitivity (allodynia) (day 9): 52.5%
- reduction in paw edema vs. vehicle control (day 9): 24.3%
- reduction in ankle diameter vs. vehicle control (day 13): 44.2%
- reduction in pain sensitivity (allodynia) (day 13): 52.5%
- reduction in paw edema vs. vehicle control (day 13): 32.7%
- Ankle Width, Mean ± SD (Day 3): 1.1 ± 0.1
- Ankle Width, Mean ± SD (Day 5): 1.0 ± 0.1
- Ankle Width, Mean ± SD (Day 7): 1.2 ± 0.1
- Ankle Width, Mean ± SD (Day 9): 1.0 ± 0.2
- Ankle Width, Mean ± SD (Day 13): 0.8 ± 0.1
- Allodynia, Mean ± SD (Day 3): 67.4 ± 5.6
- Paw edema, Mean ± SD (Day 3): 3.5 ± 0.7
- Allodynia, Mean ± SD (Day 5): 54.8 ± 2.6
- Paw edema, Mean ± SD (Day 5): 3.1 ± 0.8
- Allodynia, Mean ± SD (Day 7): 43.0 ± 4.6
- Paw edema, Mean ± SD (Day 7): 3.1 ± 0.7
- Allodynia, Mean ± SD (Day 9): 38.8 ± 2.3
- Paw edema, Mean ± SD (Day 9): 2.7 ± 0.6
- Allodynia, Mean ± SD (Day 13): 32.9 ± 2.6
- Paw edema, Mean ± SD (Day 13): 2.1 ± 0.58

Source: patent publication US20230190852A1, “COMPOSITIONS AND METHODS FOR JOINT HEALTH” (Unigen, Inc., priority 2013, published 2023)
